Results from patent US10821115B2, “Compounds that inhibit Mcl-1 protein” (priority 2017, dated 2020).
Where two headings read alike, the source gives them in different places.

Experiments:
[1] = molecular target: recombinant human Mcl-1 (residues 171-327) / Bim interaction (Homo sapiens (Human), UniProt Q07820); experiment: biochemical; format: binding; settings: read-out: Mcl-1 HTRF IC50
[2] = test system: human multiple myeloma cell line, OPM-2; experiment: Cell viability assay (OPM-2 10 FBS), CellTiter-Glo; format: cell-based
Method in brief: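 3000 cells/well, RPMI 1640 + 10% FBS; serial compound dilutions, 16 h, 37 °C/5% CO2.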

[3] = TR-FRET, Mcl-1(171-327) / biotin-Bim (51-76)
[4] = read-out: OPM-2 10% FBS IC50 IP, OPM-2 cells, 10% FBS, 16 h, CellTiter-Glo
[5] = Homo sapiens, OPM-2, 16 h, read-out: OPM-2 10% FBS IC50 IP, OPM-2 cells, 10% FBS, 16 h, CellTiter-Glo
[6] = 0.1 nM Mcl-1(171-327), 0.05 nM biotin-Bim (51-76)
[7] = Homo sapiens, OPM-2, 16 h, read-out: OPM-2 10% FBS IC50 IP, OPM-2 cells, 10% FBS, 16 h incubation

recombinant human Mcl-1 (residues 171-327) / Bim interaction, sequence (Q07820 171-327): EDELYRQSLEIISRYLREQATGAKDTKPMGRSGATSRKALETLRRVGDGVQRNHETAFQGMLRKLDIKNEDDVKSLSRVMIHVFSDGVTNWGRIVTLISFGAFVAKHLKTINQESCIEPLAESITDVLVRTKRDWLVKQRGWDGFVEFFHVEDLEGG

Molecule	IC50 [1, 3] [nM]	IC50 [2, 5] [nM]	IC50 [1, 6] [nM]	further results
CO[C@@]1(C)/C=C/C[C@H](C)[C@@H](CCOS(C)(=O)=O)S(=O)(=O)NC(=O)c2ccc3c(c2)N(C[C@@H]2CC[C@H]21)C[C@@]1(CCCc2cc(Cl)ccc21)CO3 (single isomer, unassigned) [Example 100598]	0.077	–	–	IC50 [2, 4]: 188 nM
CNC(=O)C[C@]1(OC)/C=C/C[C@H](C)[C@@H](C)S(=O)(=O)NC(=O)c2ccc3c(c2)N(C[C@@H]2CC[C@H]21)C[C@@]1(CCCc2cc(Cl)ccc21)CO3 [Example 100009, 2-((1 S,3′R,6′R,7′S,8′E,11′S, 12′R)-6-chloro-7′-methoxy-11′,12′-dimethyl-13′,13′-dioxido-15′-oxo-3,4-dihydro-2H-spiro[naphthalene-1,22′-[20]oxa[13]thia[1,14]diazatetracyclo[14.7.2.0-3,6˜.0˜19,24˜]pentacosa[8,16,18,24]tetraen]-7′-yl)-N-methylacetamide]	0.128	216	–	–
CO[C@@]1(CC(=O)N(C)C)/C=C/C[C@H](C)[C@@H](C)S(=O)(=O)NC(=O)c2ccc3c(c2)N(C[C@@H]2CC[C@H]21)C[C@@]1(CCCc2cc(Cl)ccc21)CO3 [Example 100002, 2-((1 S,3′R,6′R,7′S,8′E,11′S, 12′R)-6-chloro-7′-methoxy-11′,12′-dimethyl-13′,13′-dioxido-15′-oxo-3,4-dihydro-2H-spiro[naphthalene-1,22′-[20]oxa[13]thia[1,14]diazatetracyclo[14.7.2.0-3,6˜.0˜19,24˜]pentacosa[8,16,18,24]tetraen]-7′-yl)-N,N-dimethylacetamide]	0.071	–	–	IC50 [2, 4]: 41 nM
CO[C@@]1(C[C@@H](C)O)/C=C/C[C@H](C)[C@@H](C)S(=O)(=O)NC(=O)c2ccc3c(c2)N(C[C@@H]2CC[C@H]21)C[C@@]1(CCCc2cc(Cl)ccc21)CO3 [Example 100435, (1S,3′R,6′R,7′S,8′E,11′S,12′R)-6-chloro-7′-((2R)-2-hydroxypropyl)-7′-methoxy-11′,12′-dimethyl-3,4-dihydro-2H,15′H-spiro[naphthalene-1,22′-[20]oxa[13]thia[1,14]diazatetracyclo [14.7.2.0~3,6~.0~19,24~]pentacosa[8,16,18,24]tetraen]-15′-one 13′,13′-dioxide]	0.055	305	–	–
CO[C@@]1(C[C@@H](C)O)/C=C/C[C@H](C)[C@@H](C)S(=O)(=O)NC(=O)c2ccc3c(c2)N(C[C@@H]2CC[C@H]21)C[C@@]1(CCCc2cc(Cl)ccc21)CO3 [Example 100436, (1S,3′R,6′R,7′S,8′E,11′S,12′R)-6-chloro-7′-((2R)-2-hydroxypropyl)-7′-methoxy-11′,12′-dimethyl-3,4-dihydro-2H,15′H-spiro[naphthalene-1,22′-[20]oxa[13]thia[1,14]diazatetracyclo [14.7.2.0~3,6~.0~19,24~]pentacosa[8,16,18,24]tetraen]-15′-one 13′,13′-dioxide]	0.076	–	–	IC50 [2, 4]: 335 nM
COCc1nc(C[C@]2(OC)/C=C/C[C@H](C)[C@@H](C)S(=O)(=O)NC(=O)c3ccc4c(c3)N(C[C@@H]3CC[C@H]32)C[C@@]2(CCCc3cc(Cl)ccc32)CO4)oc1C [Example 100585, (1S,3′R,6′R,7′S,8′E,11′S,12′R)-6-chloro-7′-methoxy-7′-((4-(methoxymethyl)-5-methyl-1,3-oxazol-2-yl)methyl)-11′,12′-dimethyl-3,4-dihydro-2H,15′H-spiro[naphthalene-1,22′-[20]oxa[13]thia[1,14]diazatetracyclo [14.7.2.0~3,6~.0~19,24~]pentacosa[8,16,18,24]tetraen]-15′-one 13′,13′-dioxide]	0.057	696	–	–
C[C@@H]1[C@@H](C)CCC[C@@](O)(CC(=O)N2CCCC2)[C@@H]2CC[C@H]2CN2C[C@@]3(CCCc4cc(Cl)ccc43)COc3ccc(cc32)C(=O)NS1(=O)=O [Example 100107, (1S,3′R,6′R,7′R,11′S,12′R)-6-chloro-7′-hydroxy-11′,12′-dimethyl-7′-(2-oxo-2-(1-pyrrolidinyl)ethyl)-3,4-dihydro-2H,15′H-spiro[naphthalene-1,22′-[20]oxa[13]thia[1,14]diazatetracyclo [14.7.2.0~3,6~.0~19,24~]pentacosa[16,18,24]trien]-15′-one 13′,13′-dioxide]	0.296	181	–	–
C[C@@H]1[C@@H](C)CCC[C@](O)(CC#N)[C@@H]2CC[C@H]2CN2C[C@@]3(CCCc4cc(Cl)ccc43)COc3ccc(cc32)C(=O)NS1(=O)=O (single isomer, unassigned) [Example 100080]	0.61	818	–	–
CO[C@@]1(CN2CCN3CCCC[C@@H]3C2)/C=C/[C@H](C)[C@H](C)CS(=O)(=O)NC(=O)c2ccc3c(c2)N(C[C@@H]2CC[C@H]21)C[C@@]1(CCCc2cc(Cl)ccc21)CO3 [Example 163, (1S,3′R,6′R,7′S,8′E,10′S,11′S)-6-chloro-7′-methoxy-10′,11′-dimethyl-7′-((9aR)-octahydro-2H-pyrido[1,2-a]pyrazin-2-ylmethyl)-3,4-dihydro-2H,15′H-spiro[naphthalene-1,22′-[20]oxa[13]thia[1,14]diazatetracyclo [14.7.2.0~3,6~.0~19,24~]pentacosa[8,16,18,24]tetraen]-15′-one 13′,13′-dioxide]	–	–	0.179	IC50 [2, 7]: 130 nM
CCO[C@]1(CN2CCN(C(C)C)CC2)/C=C/C[C@H](C)[C@@H](C)S(=O)(=O)NC(=O)c2ccc3c(c2)N(C[C@@H]2CC[C@H]21)C[C@@]1(CCCc2cc(Cl)ccc21)CO3 [Example 114, (1S,3′R,6′R,7′R,8′E,11′S,12′R)-6-chloro-7′-ethoxy-11′,12′-dimethyl-7′-((4-(1-methylethyl)-1-piperazinyl)methyl)-3,4-dihydro-2H,15′H-spiro[naphthalene-1,22′-[20]oxa[13]thia[1,14]diazatetracyclo [14.7.2.0~3,6~.0~19,24~]pentacosa[8,16,18,24]tetraen]-15′-one 13′,13′-dioxide]	–	–	0.104	IC50 [2, 7]: 68 nM
CO[C@@]1(CN2CC(C)(N(C)C)C2)/C=C/C[C@H](C)[C@@H](C)S(=O)(=O)NC(=O)c2ccc3c(c2)N(C[C@@H]2CC[C@H]21)C[C@@]1(CCCc2cc(Cl)ccc21)CO3 [Example 59, (1S,3′R,6′R,7′S,8′E,11′S,12′R)-6-chloro-7′-((3-(dimethylamino)-3-methyl-1-azetidinyl)methyl)-7′-methoxy-11′,12′-dimethyl-3,4-dihydro-2H,15′H-spiro[naphthalene-1,22′-[20]oxa[13]thia[1,14]diazatetracyclo [14.7.2.0~3,6~.0~19,24~]pentacosa[8,16,18,24]tetraen]-15′-one 13′,13′-dioxide]	–	–	0.116	IC50 [2, 7]: 48 nM
C[C@@H]1[C@@H](C)C/C=C/[C@](O)(CC(=O)OCC2(C)COC2)[C@@H]2CC[C@H]2CN2C[C@@]3(CCCc4cc(Cl)ccc43)COc3ccc(cc32)C(=O)NS1(=O)=O [Example 100298, (3-methyl-3-oxetanyl)methyl ((1S,3′R,6′R,7′R,8′E,11′S,12′R)-6-chloro-7′-hydroxy-11′,12′-dimethyl-13′,13′-dioxido-15′-oxo-3,4-dihydro-2H-spiro[naphthalene-1,22′-[20]oxa[13]thia[1,14]diazatetracyclo [14.7.2.0~3,6~.0~19,24~]pentacosa[8,16,18,24]tetraen]-7′-yl)acetate]	0.14	199	–	–
(1S,3′R,6′R,7′S,8′E, 11′S,12′R)-6-chloro-12′-(2-chloroethyl)-7′-((9aS)-hexahydropyrazino[2,1-c][1,4]oxazin-8(1H)-ylmethyl)-7′-methoxy-11′-methyl-3,4-dihydro-2H,15′H-spiro[naphthalene-1,22′-[20]oxa[13]thia[1,14]diazatetracyclo[14.7.2.0-3,6˜.0˜19,24˜]pentacosa[8,16,18,24]tetraen]-15′-one 13′,13′-dioxide [Example 366]	–	–	0.248	IC50 ([2]; read-out: OPM-2 10% FBS IC50 IP, OPM-2 cells, 10% FBS, 16 h incubation): 133 nM
CO[C@@]1(C[C@@H](O)C2CC2)/C=C/C[C@H](C)[C@@H](C)S(=O)(=O)NC(=O)c2ccc3c(c2)N(C[C@@H]2CC[C@H]21)C[C@@]1(CCCc2cc(Cl)ccc21)CO3 (single isomer, unassigned) [Example 100460]	0.095	433	–	–
C[C@@H]1[C@@H](C)C/C=C/[C@@](O)(CS(C)(=O)=O)[C@@H]2CC[C@H]2CN2C[C@@]3(CCCc4cc(Cl)ccc43)COc3ccc(cc32)C(=O)NS1(=O)=O [Example 100073, (1S,3′R,6′R,7′S,8′E,11′S,12′R)-6-chloro-7′-hydroxy-11′,12′-dimethyl-7′-((methylsulfonyl)methyl)-3,4-dihydro-2H,15′H-spiro[naphthalene-1,22′-[20]oxa[13]thia[1,14]diazatetracyclo [14.7.2.0~3,6~.0~19,24~]pentacosa[8,16,18,24]tetraen]-15′-one 13′,13′-dioxide]	0.346	–	–	IC50 [2, 4]: 1200 nM
CO[C@@]1(CN2CCN3CCOC[C@H]3C2)/C=C/C[C@H](C)[C@@H](C)S(=O)(=O)NC(=O)c2ccc3c(c2)N(C[C@@H]2CC[C@H]21)C[C@@]1(CCCc2cc(Cl)ccc21)CO3 [Example 57, (1S,3′R,6′R,7′S,8′E,11′S,12′R)-6-chloro-7′-((9aR)-hexahydropyrazino[2,1-c][1,4]oxazin-8(1H)-ylmethyl)-7′-methoxy-11′,12′-dimethyl-3,4-dihydro-2H,15′H-spiro[naphthalene-1,22′-[20]oxa[13]thia[1,14]diazatetracyclo [14.7.2.0~3,6~.0~19,24~]pentacosa[8,16,18,24]tetraen]-15′-one 13′,13′-dioxide]	–	–	0.258	IC50 [2, 7]: 90 nM
